In patent publication US20250188033A1, “INHIBITOR OF REPLICATION PROTEIN A1 OF TRYPANOSOMA BRUCEI AND METHOD OF USE THEREOF” (Research Foundation of the City University of New York, published 2025):

Test system: Trypanosoma brucei
Experiment: ALAMARBLUE cell viability / growth assay of T. brucei cells
Format: cell-based
Settings: T. brucei, 72 hours, normalized to DMSO control
Procedure: To determine cell growth rate, WT and two TbRPA1 RNAi KD strains (KD1 and KD2) were seeded at a density of 1×10^5 cells/ml and cultured with or without tetracycline for the induction of RNAi. Cells were counted every 12 hours for 2 days. To determine the viability of TbRPA1-depleted cells, ALAMARBLUE® assay (Thermo Fisher, an established colorimetric technique that detects metabolically active cells) was used. Cells from each time point were incubated with ALAMARBLUE® dye for 4-6 hours and percentage of live cells was determined by measuring resorufin converted from resazurin by reducing environment of live cells. Synergy H1 microplate reader (BioTek) was used with 560/590 nm (excitation/emission) filter settings and Relative Fluorescence Unit (RFU) values were obtained. The percentage of viable cells were calculated from the RFU values.
The initial assessment of JC-229's inhibitory effect on T. brucei cell growth was performed at 50 μM concentration. Trypanosome cells were seeded at 1×10^3 cells/ml density in 180 μl in a 96-well culture plate in triplicate. These cells were incubated with 50 μM JC-229 for 24, 48, and 72 hours. DMSO was used as a vehicle control at 0.0075%. JC-229-treated culture and control cultures were analyzed with the ALAMARBLUE® dye as described above.
To obtain the EC50 value of JC-229, T. brucei cells were seeded at 1×10^3 cells/ml density in 180 μl in a 96-well culture plate in triplicate. These cells were incubated for 72 hours with increasing concentrations of JC-229, (0.5 μM to 50 μM) and cell viability was determined using the ALAMARBLUE® dye as described above.
Trypanosoma brucei cytotoxicity of JC-229 and analogs were measured using ALAMARBLUE® assay (Rampersad, S. N. Multiple applications of ALAMARBLUE® as an indicator of metabolic function and cellular health in cell viability bioassays. Sensors (Basel) 12, 12347-12360 (2012). Trypanosome cells were seeded at 1×10^3 cells/ml density in 180 μl in a 96-well culture plate in triplicate. These cells were incubated with indicated concentration of JC compounds for 72 hours. DMSO was used as a vehicle control at 0.0075%. JC compound-treated cultures were then incubated with ALAMARBLUE® dye for 4-6 hours and percentage of live cells was determined using Synergy H1 microplate reader (BioTek) with 560/590 nm (excitation/emission) filter settings and Relative Fluorescence Unit (RFU) values were obtained. The percentage of viable cells were calculated from the RFU values by normalizing to DMSO treated control. In one embodiment, the inhibitor is characterized in that it provides at least 50%, at least 80% or at least 90% inhibition at a concentration of 5 μM when tested in accordance with the above conditions.

Row | SMILES | % Inhibition @2 μM [%] | % Inhibition @10 μM [%] | % Inhibition @5 μM [%]
1 | Cc1ccc(C(=O)Nc2ccc(Cl)c(Cl)c2)cc1S(=O)(=O)NCc1cccc2ccccc12 [JC-887] | −9 | 14 | –
2 | Cc1ccc(C(=O)Nc2ccc(Cl)c(Cl)c2)cc1S(=O)(=O)Nc1cc(C(C)C)n[nH]1 [JC-888] | 16 | 100 | 62.1
3 | Cc1ccc(C(=O)Nc2ccc(Cl)c(Cl)c2)cc1S(=O)(=O)Nc1ccc(C#N)cc1N [JC-889] | −3 | −11 | –
4 | Cc1ccc(C(=O)Nc2ccc(Cl)c(Cl)c2)cc1S(=O)(=O)NCCOCCO [JC-890] | 4 | 37 | –
5 | Cc1ccc(C(=O)Nc2ccc(Cl)c(Cl)c2)cc1S(=O)(=O)N(CCCCO)Cc1ccccc1 [JC-891] | 13 | 100 | 88.8
6 | Cc1ccc(C(=O)Nc2ccc(Cl)c(Cl)c2)cc1S(=O)(=O)Nc1ccc([N+](=O)[O-])cc1N [JC-892] | 13 | 1 | –
7 | Cc1ccc(C(=O)Nc2ccc(Cl)c(Cl)c2)cc1S(=O)(=O)NC(CO)(CO)CO [JC-893] | 2 | −5 | –
8 | Cc1cc(NS(=O)(=O)c2cc(C(=O)Nc3ccc(Cl)c(Cl)c3)ccc2C)n[nH]1 [JC-894] | −4 | 2 | –
9 | Cc1ccc(C(=O)Nc2ccc(Cl)c(Cl)c2)cc1S(=O)(=O)NCCCCO [JC-895] | 10 | 45 | –
10 | Cc1ccc(C(=O)Nc2ccc(Cl)c(Cl)c2)cc1S(=O)(=O)N1CCC(NC(=O)OC(C)(C)C)CC1 [JC-896] | 17 | 92 | 69.4
11 | Cc1ccc(C(=O)Nc2ccc(Cl)c(Cl)c2)cc1S(=O)(=O)NCCCCCO [JC-897] | 0 | 36 | –
12 | Cc1ccc(C(=O)Nc2ccc(Cl)c(Cl)c2)cc1S(=O)(=O)NCCCCCCO [JC-898] | 6 | 57 | –
13 | Cc1ccc(C(=O)Nc2ccc(Cl)c(Cl)c2)cc1S(=O)(=O)Nc1cccc([N+](=O)[O-])c1N [JC-899] | 3 | 14 | –
14 | Cc1ccc(C(=O)Nc2ccc(Cl)c(Cl)c2)cc1S(=O)(=O)Nc1cc[nH]n1 [JC-902] | 14 | 56 | –
15 | Cc1ccc(C(=O)Nc2ccc(Cl)c(Cl)c2)cc1S(=O)(=O)NCc1nc2c(F)c(F)ccc2[nH]1.O=C(O)C(F)(F)F [JC-903] | 11 | 37 | –
16 | Cc1ccc(C(=O)Nc2ccc(Cl)c(Cl)c2)cc1S(=O)(=O)n1c(CN)nc2ccccc21.O=C(O)C(F)(F)F [JC-904] | 14 | 2 | –
17 | Cc1ccc(C(=O)Nc2ccc(Cl)c(Cl)c2)cc1S(=O)(=O)NCc1nc2ccccc2[nH]1.O=C(O)C(F)(F)F [JC-905] | 8 | 10 | –
18 | Cc1ccc(C(=O)Nc2ccc(Cl)c(Cl)c2)cc1S(=O)(=O)N1CCC(N)CC1.O=C(O)C(F)(F)F [JC-906] | 23 | 100 | 100
19 | O=C(Nc1ccc(Cl)c(Cl)c1)c1ccc(O)c(S(=O)(=O)Nc2ccc(Cl)c(Cl)c2)c1 [JC-907] | 12 | 5 | –
20 | Cc1ccc(C(=O)Nc2ccc(Cl)c(Cl)c2)cc1S(=O)(=O)NCCCc1ccccc1 [JC-908] | 18 | 62 | –
21 | CC(=O)c1ccc(NS(=O)(=O)c2cc(C(=O)Nc3ccc(Cl)c(Cl)c3)ccc2C)cc1 [JC-909] | 15 | 17 | –

Row | SMILES | % Inhibition @2 μM [%] | % Inhibition @10 μM [%] | % Inhibition @5 μM [%]
22 | Cc1ccc(C(=O)Nc2ccc(Cl)c(Cl)c2)cc1S(=O)(=O)C1CCN(C(=O)OC(C)(C)C)CC1 [JC-910] | 18 | 73 | –
23 | Cc1ccc(C(=O)Nc2ccc(Cl)c(Cl)c2)cc1S(=O)(=O)C1CCNCC1.O=C(O)C(F)(F)F [JC-911] | 11 | 25 | –
24 | Cc1ccc(C(=O)Nc2ccc(Cl)c(Cl)c2)cc1S(=O)(=O)Nc1ccc(O)cc1 [JC-912] | −5 | 58 | –
25 | Cc1ccc2c(NS(=O)(=O)c3cc(C(=O)Nc4ccc(Cl)c(Cl)c4)ccc3C)cccc2n1 [JC-913] | 2 | 6 | –
26 | Cc1ccc(C(=O)Nc2ccc(Cl)c(Cl)c2)cc1S(=O)(=O)Nc1cnc2ccccc2c1 [JC-914] | −7 | −3 | –
27 | Cc1ccc(C(=O)Nc2ccc(Cl)c(Cl)c2)cc1S(=O)(=O)Nc1ccncc1 [JC-915] | −11 | 6 | –
28 | Cc1ccc(C(=O)Nc2ccc(Cl)c(Cl)c2)cc1S(=O)(=O)N1CCN(C)CC1 [JC-916] | −2 | 36 | –
29 | Cc1ccc(C(=O)Nc2ccc(Cl)c(Cl)c2)cc1S(=O)(=O)NCCNC(=O)OC(C)(C)C [JC-917] | −14 | 73 | –
30 | Cc1ccc(C(=O)Nc2ccc(Cl)c(Cl)c2)cc1S(=O)(=O)NCCN.O=C(O)C(F)(F)F [JC-918] | −20 | 56 | –
31 | CC(=O)NCCNS(=O)(=O)c1cc(C(=O)Nc2ccc(Cl)c(Cl)c2)ccc1C [JC-919] | −10 | 18 | –
32 | Cc1ccc(C(=O)Nc2ccc(Cl)c(Cl)c2)cc1S(=O)(=O)NCCNC(=O)c1ccccc1 [JC-920] | −5 | −9 | –
33 | Cc1ccc(C(=O)Nc2ccc(Cl)c(Cl)c2)cc1S(=O)(=O)NCCNC(=O)[C@H](N)Cc1ccccc1 [JC-922] | −7 | 19 | –
34 | Cc1ccc(C(=O)Nc2ccc(Cl)c(Cl)c2)cc1S(=O)(=O)NCCNS(=O)(=O)c1ccc(Br)cc1 [JC-923] | 2 | 100 | 100.9
35 | Cc1ccc(C(=O)Nc2ccc(Cl)c(Cl)c2)cc1S(=O)(=O)C1CCC(NC(=O)OC(C)(C)C)CC1 (stereo not drawn) [JC-924] | −2 | 100 | 99.4
36 | Cc1ccc(C(=O)Nc2ccc(Cl)c(Cl)c2)cc1S(=O)(=O)C1CCC(N)CC1 (stereo not drawn) [JC-925] | −8 | 17 | –
37 | Cc1ccc(C(=O)Nc2ccc(Cl)c(Cl)c2)cc1S(=O)(=O)C1CCC(NC(=O)Cc2ccccc2)CC1 (stereo not drawn) [JC-926] | −8 | 100 | 28.9
38 | Cc1ccc(C(=O)Nc2ccc(Cl)c(Cl)c2)cc1S(=O)(=O)C1CCC(NC(=O)c2ccccc2)CC1 (stereo not drawn) [JC-927] | 0 | 100 | 42.4
39 | Cc1ccc(C(=O)Nc2ccc(Cl)c(Cl)c2)cc1S(=O)(=O)N1CCCC(NC(=O)OC(C)(C)C)C1 (stereo not drawn) [JC-928] | 15 | 100 | 99.6
40 | Cc1ccc(C(=O)Nc2ccc(Cl)c(Cl)c2)cc1S(=O)(=O)N1CCCC(N)C1.O=C(O)C(F)(F)F (stereo not drawn) [JC-929] | 5 | 100 | 99.7
41 | Cc1ccc(C(=O)Nc2ccc(Cl)c(Cl)c2)cc1S(=O)(=O)N1CCCC(NC(=O)Cc2ccccc2)C1 (stereo not drawn) [JC-930] | 4 | 100 | 99.7
